Literature values, collected in US5688981A, “Ethylenediaminetriacetic acid and N-acyl ethylenediaminetriacetic acid silver chelating agents and surfactants” (Hampshire Chemical Corp., priority 1996, dated 1997).

Columns and labels:
[1] = background

For O=C([O-])CC(O)(CC(=O)[O-])C(=O)[O-].[Ag+].[Ag+].[Ag+] [silver citrate], the “concentration with propensity towards protein precipitation” value (“concentration” below) (protein) is listed as 10^-4 M.

For [Ag][I] [silver iodide], the “concentration” value (protein) is given as 10^-4 M.

For CC(O)C(=O)[O-].[Ag+] (centres unmarked) [silver lactate], the “concentration” value (protein) is listed as 10^-4 M.

For O=[N+]([O-])[O-].[Ag+] [silver nitrate], the “toxicity on oral administration” value [1] is listed as “can cause severe gastroenteritis which may be fatal”.

In the case of [Ag+].[Ag+].[O-2] [silver oxide], the “concentration” value (protein) is given as 10^-4 M.
